These results are taken from ChEMBL document CHEMBL2202954, “The effect of PLC-γ2 inhibitors on the growth of human tumour cells” (2012).

Common to all, as to type: functional
Test [1] deals with NCI-H23. As to the kind of experiment: Cytotoxicity against human NCI-H23 cells assessed as cellular growth at 10 uM by SRB assay. Background: In SRB staining, fixed cells bind dye roughly in proportion to their protein.
For test [2], the system named is Hs-578T. Put plainly: Cytotoxicity against human Hs578T cells assessed as cellular growth at 10 uM by SRB assay.
Test [3] has as its system 786-0. As to the kind of experiment: Cytotoxicity against human 786-0 cells assessed as cellular growth at 10 uM by SRB assay.
Test [4] concerns RPMI-8226. Put plainly: Cytotoxicity against human RPMI8226 cells assessed as cellular growth at 10 uM by SRB assay.
Test [5] relates to T47D. Put plainly: Cytotoxicity against human T47D cells assessed as cellular growth at 10 uM by SRB assay.
The subject of test [6] is KM12. As to the kind of experiment: Cytotoxicity against human KM12 cells assessed as cellular growth at 10 uM by SRB assay.
The subject of test [7] is ACHN. As to the kind of experiment: Cytotoxicity against human ACHN cells assessed as cellular growth at 10 uM by SRB assay.
In test [8] the test system is TK-10. Put plainly: Cytotoxicity against human TK10 cells assessed as cellular growth at 10 uM by SRB assay.
For test [9], the system named is NCI-H522. As to the kind of experiment: Cytotoxicity against human NCI-H522 cells assessed as cellular growth at 10 uM by SRB assay.
The test system of test [10] is CAKI-1. As to the kind of experiment: Cytotoxicity against human Caki1 cells assessed as cellular growth at 10 uM by SRB assay.
Test [11] deals with DU-145. Put plainly: Cytotoxicity against human DU145 cells assessed as cellular growth at 10 uM by SRB assay.
The subject of test [12] is SK-MEL-5. As to the kind of experiment: Cytotoxicity against human SK-MEL-5 cells assessed as cellular growth at 10 uM by SRB assay.
Test [13] deals with SF-295. Put plainly: Cytotoxicity against human SF295 cells assessed as cellular growth at 10 uM by SRB assay.
In test [14] the test system is A549. Put plainly: Cytotoxicity against human A549 cells assessed as cellular growth at 10 uM by SRB assay.
Test [15] has as its system HCT-116. As to the kind of experiment: Cytotoxicity against human HCT116 cells assessed as cellular growth at 10 uM by SRB assay.
For test [16], the system named is MDA-MB-435. As to the kind of experiment: Cytotoxicity against human MDA-MB-435 cells assessed as cellular growth at 10 uM by SRB assay.
In test [17] the test system is K562. Put plainly: Cytotoxicity against human K562 cells assessed as cellular growth at 10 uM by SRB assay.
Test [18] relates to SN12C. As to the kind of experiment: Cytotoxicity against human SN12C cells assessed as cellular growth at 10 uM by SRB assay.
Test [19] deals with UACC-62. As to the kind of experiment: Cytotoxicity against human UACC62 cells assessed as cellular growth at 10 uM by SRB assay.
Test [20] concerns Malme-3M. Put plainly: Cytotoxicity against human MALME-3M cells assessed as cellular growth at 10 uM by SRB assay.

Structures are written as SMILES.

As to `Nc1c(C(=O)Nc2ccccc2F)sc2nc3c(cc12)C(=O)CCC3`, the Activity in test [1] stood at 42.84%; in test [2] it was 37.25%; in test [3], 41.5%; in test [4], 52.02%; in test [5], 40.19%; in [6], 24.63%. Moreover, the Activity is on record as 65.41% in [7]; 59.66% in test [8]; -15.17% in test [9]; 4.36% in test [10]; 8.4% in [11]; 17.91% in test [12]. Also, the Activity in test [13] was 3.17%; in test [14] it was 22.02%; in [15] it was 32.04%; in [16] it was -25.93%; in test [17], 26.33%; in test [18] it was 49.76%. Moreover, in test [19], the Activity came to 23.7%.

As for `CC1(C)CCc2cc(-c3ccn(S(=O)(=O)c4ccccc4Cl)n3)ccc2O1`, the Activity is 76.98% in [1]; 102.19% in test [2]; 71.72% in test [3]; 70.97% in [4]; 58.8% in [5]; 62.1% in [6]. In addition, the Activity in test [20] is on record as 98.68%; in [7], 98.39%; in [8], 74.57%; in [9] it was 77.85%; in test [10], 101.05%; in test [11], 93.97%. Besides, the Activity amounted to 75.14% in test [12]; 80.53% in test [14]; 68.63% in test [15]; 98.73% in test [16]; 43% in [17]; 75.88% in test [18]. The Activity in [19] was 81.14%.

For the molecule `O=C(NCCc1ccccc1)c1cc2cccc([N+](=O)[O-])c2[nH]1`, the Activity was 92.74% in test [1]; 111.09% in [2]; 105.28% in [3]; 88.5% in test [4]; 69.69% in [5]; 106.02% in [6]. In addition, the Activity in test [7] was 93.06%; in test [8], 102.94%; in test [9] it was 84.92%; in [10], 87.57%; in [11] it was 112.66%; in test [12], 76.25%. In addition, the Activity in test [13] was 92.52%; in [14], 94.33%; in test [15], 101.79%; in [16] it was 109.58%; in test [17], 82.43%; in test [18], 94.11%. Also, in [19], the Activity is given as 71.51%.

As to `Cc1cccc(-c2nc(-c3cccs3)no2)c1`, the Activity in test [1] is 89.36%; in test [2], 81.63%; in test [3], 93.47%; in test [4], 92.97%; in test [5] it was 53.59%; in [6], 104.19%. The Activity in [20] turned out to be 112.31%; in [7], 99.9%; in test [8] it was 68.05%; in test [9] it was 90.03%; in test [10], 77.92%; in [11], 120%. In addition, the Activity amounted to 82.84% in test [12]; 91.28% in test [13]; 100.01% in test [14]; 96.5% in test [15]; 110.16% in test [16]; 94.59% in test [17]. The Activity in test [19] turned out to be 86.85%.

Regarding `Clc1ccc(-c2nc(-c3cccs3)no2)cc1`, the Activity in [1] is reported as 92.82%; in test [2], 136.36%; in test [3], 99.58%; in test [4] it was 93.69%; in [5], 66.67%; in test [6], 92.39%. Also, the Activity worked out at 96.33% in [7]; 109.61% in test [8]; 92.03% in test [9]; 102.58% in [10]; 119.78% in test [11]; 90.07% in test [12]. Moreover, the Activity in [13] is given as 92.23%; in test [14], 94.07%; in test [15] it was 92.37%; in [16], 111.2%; in test [17], 101.77%; in test [18] it was 97.08%. Besides, the Activity in test [19] came to 89.8%.

On to `Nc1c(C(=O)NCc2ccccc2)sc2nc3c(cc12)C(=O)CCC3`, for which the Activity was determined as 106.63% in test [1]; 122.77% in [2]; 110.1% in test [3]; 109.76% in [4]; 106.44% in test [5]; 106.46% in test [6]. The Activity in test [20] is 139.75%; in test [7] it was 112.59%; in [8] it was 115.8%; in test [9] it was 109.84%; in test [11], 127.66%; in [12], 100.24%. Also, the Activity in test [14] was 103.07%; in [15], 108.9%; in test [17], 111.11%; in test [18], 101.11%; in test [19], 115.69%.

As to `Cc1ccc(C2=N/C(=C\c3ccccc3)C(=O)O2)cc1`, the Activity is recorded as 101.26% in [1]; 96.01% in test [2]; 103.22% in [3]; 102.87% in test [4]; 105.06% in [5]; 108.78% in test [6]. The Activity in test [20] is listed as 105.62%; in test [7], 104.91%; in test [8], 112.19%; in test [9] it was 95.94%; in [10], 101.22%; in test [11] it was 106.2%. Also, the Activity in test [12] was 105.32%; in [14], 107.01%; in [15], 114.29%; in test [16], 102.12%; in test [17] it was 106.22%; in [18] it was 98.61%. In addition, the Activity in test [19] was 101.68%.

For `Cc1cc(C)c(NC(=O)c2sc3nc4c(cc3c2N)C(=O)CCC4)c(C)c1`, the Activity in test [1] came to 33.04%; in test [2], 17.68%; in test [3], 30.39%; in [4], 31.83%; in [5], 40.64%; in test [6] it was 27.28%. The Activity in test [20] is reported as 42.11%; in test [7] it was 55.26%; in [8] it was 44.75%; in [9] it was -14.71%; in [10] it was -22.19%; in test [11], 10.04%. Also, the Activity in [12] is recorded as 11.34%; in [13] it was -11.34%; in test [14], 23.05%; in test [15], 23.12%; in test [16], -34.35%; in test [17] it was 19.79%. For the same molecule, the Activity in [19] is 23.22%.

`O=C(Nc1ccc2oc(=O)ccc2c1)c1ccc(-c2ccc(Br)cc2)o1`: the Activity in [1] is recorded as 103.68%; in test [2], 104.83%; in [3], 95.42%; in [4] it was 108.92%; in [5] it was 100.95%; in test [6], 114.03%. For the same molecule, the Activity in test [20] was 130.92%; in test [7], 121.66%; in [8], 102.05%; in test [9], 105.32%; in test [10] it was 183.36%; in test [11], 109.38%. Further, the Activity in test [12] is 100.82%; in test [14], 100.63%; in test [15], 103.94%; in test [16] it was 112.48%; in test [17] it was 95.77%; in [18], 99.06%. The Activity in test [19] was 104.75%.

For the molecule `O=S(=O)(Oc1ccc(-c2cnc3ccccc3n2)cc1)c1ccc2ccccc2c1`, the Activity in [1] amounted to 100.37%; in [2], 105.04%; in test [3], 96.4%; in [4], 89.09%; in test [5], 91.09%; in test [6] it was 101.08%. In addition, the Activity is 118.15% in test [7]; 94.33% in test [8]; 86.38% in [9]; 105.66% in test [10]; 104.01% in test [11]; 84.35% in test [12]. Moreover, the Activity came to 102.68% in test [13]; 102.43% in [14]; 94.69% in test [15]; 95.36% in [16]; 90.95% in test [17]; 92.04% in test [18]. For the same molecule, in test [19], the Activity came to 82.67%.

In the case of `CC1(C)CCc2cc(-c3ccn(S(=O)(=O)c4ccc(Cl)cc4)n3)ccc2O1`, the Activity in test [1] is listed as 65.48%; in [2], 99.49%; in test [3], 71.44%; in test [4], 52.06%; in test [5], 54.12%; in test [6], 77%. Besides, the Activity in test [7] was 89.36%; in test [8], 76.99%; in [9] it was 66.19%; in test [10], 64.29%; in test [11], 88.3%; in test [12] it was 47.2%. The Activity in test [13] was 78.68%; in [14] it was 67.37%; in test [15], 61.1%; in test [16], 85.81%; in [17], 52.43%; in test [18], 72.79%. In [19], the Activity was found to be 75.03%.
